In one experiment the test system is collagen type IV. As to the kind of experiment: Alkali burn model: IHC collagen type IV intensity in anterior and posterior stroma (ImageJ). It counts as in vivo, rabbit. As to conditions: one month. The procedure:
Worth, TX) and a 5 mm diameter circular Whatman No. 1 filter paper (Cat #1001-6508, Fisher Scientific) wetted with 100 μl of 1N NaOH solution. Following the alkali burn injury, the cornea was irrigated profusely with BSS. Each injured cornea also received one drop of ciprofloxacin (Alcon, Ft. Worth, TX, USA) ten minutes after surgery and four times a day for one week and at least 15 minutes apart from the study medications. […] Worth TX), at least 5 minutes apart, or 4) 50 μl of BSS. Multiplex immunohistochemistry (IHC) was performed using previously described methods^8 and primary antibodies (Table 7) confirmed by western blotting and IHC to recognize rabbit antigens or isotypic control antibodies (Thermo Fisher Scientific, Waltham, MA), and secondary fluorescent tagged antibodies (Table 7). The collagen type IV antibody (Cat. #AB769, Millipore, Temecula CA) was raised against purified human and bovine collagen type IV that had been affinity purified with human and bovine collagen type IV crosslinked to agarose and cross-absorbed by the manufacturer with human and bovine collagens type I, II, III, V and VI to eliminate cross-reactivity. This collagen type IV antibody was shown previously to bind rabbit collagen IV in IHC,^8,9 and recognizes the alpha-1/alpha-2 chains but not the alpha-3 to alpha-6 chains. The keratocan antibody is raised against peptide […]-OH (SEQ ID NO:1). This marker was used to identify keratocytes in situ. […] All corneas in each group had IHC for collagen type IV. Images from each cornea were converted to uniform 300 DPI, 875×568 pixel, files. […] The staining intensity within each box was determined with the analyze histogram function and the mean of three boxes was the intensity value in the anterior or posterior stroma for that cornea.

The test system of experiment [1] is corneal neovascularization (CNV). Kind of experiment: Alkali burn model: central corneal neovascularization (corneal angiography). It counts as in vivo, rabbit. As to conditions: four corneas in each group, topical six times per day, one month. The procedure: (§1) Alkali injuries were produced in one eye of rabbits with previously published methods^10 using 1N sodium hydroxide (Sigma, St. Louis, MO) in balanced salt solution (BSS, 0.64% sodium chloride, 0.075% potassium chloride, 0.048% calcium chloride dihydrate, […] magnesium chloride hexahydrate, 0.39% sodium acetate trihydrate, 0.17% sodium citrate dihydrate, pH 7.5, Alcon, H. Worth, TX) and a 5 mm diameter circular Whatman No. 1 filter paper (Cat #1001-6508, Fisher Scientific) wetted with 100 μl of 1N NaOH solution. Following the alkali burn injury, the cornea was irrigated profusely with BSS. Each injured cornea also received one drop of ciprofloxacin (Alcon, Ft. Worth, TX, USA) ten minutes after surgery and four times a day for one week and at least 15 minutes apart from the study medications.
Worth TX), at least 5 minutes apart, or 4) 50 μl of BSS.
All corneas had fluorescent angiography at the peak of dye passage in the cornea immediately after injection of 1.5 ml of 10% sodium fluorescein (McKesson, Irvine, TX) in the central ear vein with the slit lamp system and digital camera system using a “barrier filter” that only transmitted 520-530 nm, the peak of fluorescein emission, with broad illumination of the cornea, as previously described.^11

For experiment [2], the system named is rabbit corneas after alkali burn injury. As to the kind of experiment: Alkali burn model: slit lamp opacity area and intensity (ImageJ). Type of experiment: in vivo. As to conditions: alkali burn 1N NaOH; topical six times per day, one month; 0.8 mg/ml losartan, 1% prednisolone acetate. The procedure:
All animal treatments and care were approved by the Institutional Animal Care and Use Committee (IACUC) at the Cleveland Clinic Foundation (Cleveland, OH, USA) and the Animal Care and Use Review Office of the Department of the Army (Fort Detrick, MD). All rabbits were treated in accordance with the tenets of the ARVO Statement for the Use of Animals in Ophthalmic and Vision Research. Sixteen 10- to 15-week-old female New Zealand White rabbits weighing 2.5 to 3.0 kg each were included in this example. […]
At one month after sodium hydroxide exposure and treatments, with the rabbits under ketamine-xylazine general anesthesia, the eyes were dilated with two drops of 1% tropicamide (Akom Co., Lake Forest, IL) for thirty minutes. […] For each study eye, the total area of opacity was determined by outlining the opacity with the freehand selection tool using ImageJ 1.53a analysis software calibrated to mm^2. The “raw internal density” in pixels for the opacified area in each cornea was also determined using ImageJ. […]

The test system of experiment [3] is α-SMA-positive myofibroblasts. As to the kind of experiment: Alkali burn model: IHC α-SMA-positive stromal area and intensity (ImageJ). The conditions noted are these: topical six times per day, one month. It counts as in vivo, rabbit. The procedure: as §1
Worth TX), at least 5 minutes apart, or 4) 50 μl of BSS. […]
The area of the α-SMA-positive stroma in mm^2 and the total α-SMA opacity in pixels were quantitated using standardized images obtained with a 10× objective on a Leica DM6B upright microscope equipped with an automated stage and Leica 7000 T camera using the LAS X software (Leica Microsystems, GmbH, Wetzlar, Germany). The means of three central corneal sections were analyzed from each cornea to provide the area of α-SMA-positive stroma and the total α-SMA opacity. The area of α-SMA-positive stroma in mm^2 for each cornea was determined from full diameter and thickness central corneal section images (all converted to 300 DPI, 885 width×500 height, files with identical +50% brightness increase in Photoshop for all images) with the ImageJ 1.53a analysis software using the freehand selection tool to delineate the area(s) of α-SMA-positive staining. […] In these same sections for each cornea, the total α-SMA-positive intensity in pixels was also determined with ImageJ, similarly by using the summation if separate α-SMA-positive areas were present. […]

For the molecule `CC(=O)OCC(=O)[C@@]1(O)CC[C@H]2[C@@H]3CCC4=CC(=O)C=C[C@]4(C)[C@H]3[C@@H](O)C[C@@]21C` [Prednisolone acetate, prednisolone acetate], the “mean intensity units of collagen type IV in the anterior stroma compared to vehicle treatment” value in the experiment with collagen type IV is on record as “trend towards a decrease”. The “corneas in which central corneal neovascularization developed” value in experiment [1] is “one”. For the same molecule, the “total opacity intensity in pixels (ImageJ) vs BSS vehicle group” value in experiment [2] is given as “did not reach statistical significance”. The “localization of α-SMA-positive myofibroblasts in the stroma” value in experiment [3] is “more variable”.

For the origin of these results see US20240350402A1, “TOPICAL DRUG TREATMENT TO PREVENT OR REDUCE CORNEAL SCARRING” (The Cleveland Clinic Foundation, priority 2021, published 2024).
